Results as given in the CheMixHub viscosity set.

Experiment: xn = mol fraction of the nth substance listed

C=CC(=O)OC + CCCCCCCCCCCCC
viscosity [mPa·s], 100 kPa
Settings	x1 = 0.1018	x1 = 0.1995	x1 = 0.3067	x1 = 0.4044	x1 = 0.5002	x1 = 0.6038	x1 = 0.7058	x1 = 0.8043	x1 = 0.9012
303.15 K	1.375	1.235	1.091	0.974	0.868	0.765	0.673	0.593	0.513
308.15 K	1.178	1.058	0.936	0.838	0.752	0.669	0.598	0.538	0.477
313.15 K	1.056	0.953	0.845	0.762	0.689	0.618	0.554	0.498	0.446

CCCCCC + CCO
298.15 K
Settings	viscosity [mPa·s]
100 kPa, x1 = 0.0432	0.9721
100 kPa, x1 = 0.1024	0.848
100 kPa, x1 = 0.1981	0.702
100 kPa, x1 = 0.3027	0.5885
100 kPa, x1 = 0.4066	0.5026
100 kPa, x1 = 0.5031	0.439
100 kPa, x1 = 0.5999	0.3881
100 kPa, x1 = 0.7007	0.3479
100 kPa, x1 = 0.8026	0.3191
100 kPa, x1 = 0.8955	0.3025
100 kPa, x1 = 0.971	0.2965
101 kPa, x1 = 0.0149	1.046
101 kPa, x2 = 0.1035	0.3031
101 kPa, x2 = 0.1286	0.306
101 kPa, x2 = 0.2846	0.3322
101 kPa, x2 = 0.3428	0.3666
101 kPa, x2 = 0.4373	0.4133
101 kPa, x2 = 0.4727	0.4249
101 kPa, x2 = 0.533	0.4651
101 kPa, x2 = 0.5802	0.4994
101 kPa, x2 = 0.6757	0.5717
101 kPa, x2 = 0.7394	0.6511
101 kPa, x2 = 0.8689	0.8184
101 kPa, x2 = 0.8995	0.8715
101 kPa, x2 = 0.9793	1.033
101.33 kPa, x2 = 0.0569	0.315
101.33 kPa, x2 = 0.1499	0.325
101.33 kPa, x2 = 0.2731	0.363
101.33 kPa, x2 = 0.439	0.438
101.33 kPa, x2 = 0.5984	0.528
101.33 kPa, x2 = 0.7241	0.632
101.33 kPa, x2 = 0.8282	0.757
101.33 kPa, x2 = 0.9076	0.895
101.33 kPa, x2 = 0.9673	1.022

CC(C)(C)c1ccccc1 + CCCCCCCCCCCCCCCC
viscosity [mPa·s], 100 kPa
Settings	x2 = 0.0661	x2 = 0.106	x2 = 0.2088	x2 = 0.3087	x2 = 0.3877	x2 = 0.5114	x2 = 0.621	x2 = 0.6915	x2 = 0.8377	x2 = 0.9225
298.15 K	1.236	1.297	1.442	1.566	1.675	1.87	2.073	2.235	2.597	2.821
308.15 K	1.065	1.111	1.235	1.343	1.427	1.584	1.749	1.868	2.138	2.298
318.15 K	0.928	0.968	1.072	1.17	1.247	1.382	1.513	1.606	1.804	1.914

CC(C)CO + O
Settings	viscosity [mPa·s]
293.15 K, 101.33 kPa, x1 = 0.0049	1.124
293.15 K, 101.33 kPa, x1 = 0.01	1.222
293.15 K, 101.33 kPa, x1 = 0.015	1.332
293.15 K, 101.33 kPa, x1 = 0.021	1.453
298 K, 101 kPa, x2 = 0.2	3.148
298 K, 101 kPa, x2 = 0.4	3.209
299 K, 101 kPa, x2 = 0.1	3.13
299 K, 101 kPa, x2 = 0.45	3.156
300 K, 101 kPa, x2 = 0.3	2.95
303 K, 101 kPa, x1 = 0.01	0.931
303 K, 101 kPa, x2 = 0.1	2.753
303 K, 101 kPa, x2 = 0.2	2.679
303 K, 101 kPa, x2 = 0.3	2.676
303 K, 101 kPa, x2 = 0.4	2.719
303 K, 101 kPa, x2 = 0.45	2.761
303.15 K, 101.33 kPa, x1 = 0.0049	0.899
303.15 K, 101.33 kPa, x1 = 0.01	0.967
303.15 K, 101.33 kPa, x1 = 0.015	1.04
303.15 K, 101.33 kPa, x1 = 0.021	1.119
313 K, 101 kPa, x1 = 0.01	0.7483
313 K, 101 kPa, x2 = 0.1	2.041
313 K, 101 kPa, x2 = 0.2	1.985
313 K, 101 kPa, x2 = 0.3	1.976
313 K, 101 kPa, x2 = 0.4	2.002
313 K, 101 kPa, x2 = 0.45	2.025
313.15 K, 101.33 kPa, x1 = 0.0049	0.721
313.15 K, 101.33 kPa, x1 = 0.01	0.767
313.15 K, 101.33 kPa, x1 = 0.015	0.815
323 K, 101 kPa, x1 = 0.01	0.6161
323 K, 101 kPa, x2 = 0.1	1.55
323 K, 101 kPa, x2 = 0.2	1.51
323 K, 101 kPa, x2 = 0.3	1.502
323 K, 101 kPa, x2 = 0.4	1.517
323 K, 101 kPa, x2 = 0.45	1.531
323.15 K, 101.33 kPa, x1 = 0.0049	0.604
323.15 K, 101.33 kPa, x1 = 0.01	0.642
323.15 K, 101.33 kPa, x1 = 0.015	0.675

CCCCCOC(C)=O + CCCCCO
viscosity [mPa·s], 101.33 kPa
Settings	x1 = 0.0982	x1 = 0.1951	x1 = 0.3024	x1 = 0.4009	x1 = 0.5015	x1 = 0.6044	x1 = 0.7081	x1 = 0.8063	x1 = 0.9007
293.15 K	3.552	3.076	2.623	2.266	1.952	1.675	1.436	1.241	1.079
303.15 K	2.583	2.279	1.984	1.747	1.534	1.343	1.174	1.034	0.915
313.15 K	2.039	1.811	1.588	1.407	1.244	1.097	0.966	0.857	0.763
323.15 K	1.198	1.103	1.001	0.924	0.847	0.776	0.709	0.652	0.601
